From patent US20220002291A1, “PROTEOLYSIS-TARGETING CHIMERAS” (The Wistar Institute of Anatomy and Biology, priority 2018, published 2022)

Tests used:
[1] = Pharmacokinetic analysis of PROTAC YX-2-107 in mice; format: in vivo, mouse
Protocol: Pharmacokinetic analysis of PROTAC YX-2-107 in CD-1 mice. A 1-arm PK study was performed in 18 CD-1 mice (n=3 mice per time point). Animals were injected intraperitoneally (IP) with a single dose (10 mg/kg) of PROTAC YX-2-107 dissolved in a solution of 10% DMSO, 10% Solutol, 80% PBS. Plasma samples were collected at 0.25, 0.5, 1, 2, 4, and 6 hours post-IP injection and analyzed by LC-MS/MS. Concentrations of PROTAC YX-2-107 were calculated by linear regression analysis. This analysis was performed by Alliance Pharma (Malvern, Pa.).

CDK4/cyclinD1 = CDK4/cyclinD1 (Homo sapiens, UniProt P11802); test: Inhibition of CDK4 kinase activity (in vitro)
[2] = CD-1, mouse, plasma, intraperitoneal, 10 mg/kg IP

Sequence of CDK4/cyclinD1 (P11802 whole entry): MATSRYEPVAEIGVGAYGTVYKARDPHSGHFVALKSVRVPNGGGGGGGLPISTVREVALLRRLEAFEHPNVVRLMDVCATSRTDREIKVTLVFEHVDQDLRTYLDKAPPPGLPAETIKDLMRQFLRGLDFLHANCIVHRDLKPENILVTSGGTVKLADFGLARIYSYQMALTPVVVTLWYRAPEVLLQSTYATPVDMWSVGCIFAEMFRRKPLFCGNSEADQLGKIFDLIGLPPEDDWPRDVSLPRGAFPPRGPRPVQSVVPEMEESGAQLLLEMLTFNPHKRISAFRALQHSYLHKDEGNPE
Sequence of CDK4/cyclinD1 (P24385 whole entry partner): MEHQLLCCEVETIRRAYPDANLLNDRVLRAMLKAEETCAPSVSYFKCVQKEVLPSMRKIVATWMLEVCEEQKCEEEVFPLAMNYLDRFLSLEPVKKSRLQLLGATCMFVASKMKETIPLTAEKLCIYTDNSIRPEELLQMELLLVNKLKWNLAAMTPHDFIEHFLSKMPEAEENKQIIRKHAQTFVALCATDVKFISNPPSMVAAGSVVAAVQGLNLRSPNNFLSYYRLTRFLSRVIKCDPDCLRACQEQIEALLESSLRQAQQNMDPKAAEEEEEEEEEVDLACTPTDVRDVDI

For `CC(=O)c1c(C)c2cnc(Nc3ccc(N4CCN(C(=O)CNCCCCNC(=O)COc5cccc6c5C(=O)N(C5CCC(=O)NC5=O)C6=O)CC4)cn3)nc2n(C2CCCC2)c1=O` (centres unmarked) [YX-2-107], which “Cmax relative to CDK6 degradation IC50” value ([1]; 10 mg/kg IP) is on record?
The value was 150 fold.

What about the “plasma exposure at 2 h relative to CDK6 degradation IC50” value ([1]; 10 mg/kg IP) of the same compound?
The value was 30 fold.

And the “plasma exposure at 6 h relative to CDK6 degradation IC50” value ([1]; 10 mg/kg IP)?
The value was “approximately 4 fold”.

And the half-life ([1]; CD-1, mouse, plasma, 10 mg/kg, administered by IP, read-out: half-life in mouse PK study (converted))?
Its half-life is 1 h.

What about the concentration at 2 h [1, 2] of the same compound?
The concentration at 2 h was 133 nM.

And the concentration at 6 h [1, 2]?
The concentration at 6 h was 21 nM.

What about the Cmax ([1]; CD-1, mouse, plasma, 10 mg/kg IP, single dose) of the same compound?
The Cmax was 741 nM.

What about the IC50 (CDK4/cyclinD1) of the same compound?
The IC50 was 0.69 nM.
